Key:
MRSA (SA86) = conditions: agar plate two-fold dilution, CLSI, 35 °C, 18 h
Protocol: (§1) For the determination of the minimum inhibitory concentration (MIC), according to the CLSI standard, a two-fold dilution method with a plate and a Denlay multi-point inoculator were used to conduct the drug sensitivity test. The test bacteria were enriched with MH broth or brain heart infusion. The drug solution was diluted two-fold with MH broth to prepare various required concentrations, and appropriate amounts were added to the plates respectively. After the MH agar medium was melted, it was quantitatively poured into the plates containing the drug solution and mixed uniformly. The final concentrations of the samples were: 128, 64, 32, 16, 8, 4, 2, 1, 0.5, 0.25, 0.125, 0.063, 0.031, 0.016, 0.008, 0.004 μg/mL, respectively. The test bacteria were inoculated (inoculation amount was 10^4 cfu/point) and then incubated at constant temperature of 35 □. The results were observed after 18 h. The minimum concentration of the drug contained in the sterile growth plate was the minimum inhibitory concentration (MIC). Selection of strain types: MRSA (SA86 and SA88), MSSA (ATCC29213), Enterococcus (ET6) and Streptococcus faecalis (SF).

Enterococcus (ET6) = conditions: agar plate two-fold dilution, CLSI, 35 °C, 18 h
Protocol: as §1

MSSA (ATCC29213) = conditions: Test Method 1: agar plate two-fold dilution, CLSI, 35 °C, 18 h
Protocol: as §1

[1] = test system: Mycobacterium smegmatis mc2155; assay: MIC, 96-well dilution in 7H9 medium (Test Method 3); format: cell-based; conditions: 96-well plate, 35±2 °C, 48 hours, highest concentration 64 μg/mL
[2] = test system: Streptococcus faecalis (SF); conditions: agar plate two-fold dilution, CLSI, 35 °C, 18 h
Protocol: as §1

MRSA (SA88) = conditions: agar plate two-fold dilution, CLSI, 35 °C, 18 h
Protocol: as §1

Row | Compound | In vitro antibacterial activity MIC, MRSA SA86 (MRSA (SA86)) [µg/mL] | In vitro antibacterial activity MIC, Enterococcus (ET6) (Enterococcus (ET6)) [µg/mL] | In vitro antibacterial activity MIC, MSSA(ATCC29213) (MSSA (ATCC29213)) [µg/mL] | In vitro antibacterial activity MIC, Mycobacterium smegmatis mc2155 [1] [µg/mL] | In vitro antibacterial activity MIC, Streptococcus faecalis(SF) [2] [µg/mL] | In vitro antibacterial activity MIC, MRSA SA88 (MRSA (SA88)) [µg/mL]
1 | CC[C@H](C)[C@H](NC(=O)[C@@H](Cc1ccccc1)NC)C(=O)N[C@@H](CO)C(=O)N[C@H](CCC(N)=O)C(=O)N[C@@H](C(=O)N[C@H](C(=O)N[C@@H](CO)C(=O)N[C@H]1C(=O)N[C@@H](C)C(=O)N[C@@]2(C[C@H]2CC(F)F)C(=O)N[C@@H]([C@@H](C)CC)C(=O)O[C@H]1C)[C@@H](C)CC)[C@@H](C)CC.O=C(O)C(F)(F)F [Example 1] | 4 | 4 | 2 | 8 | – | –
2 | CC[C@H](C)[C@H](NC(=O)[C@@H](Cc1ccccc1)NC)C(=O)N[C@@H](CO)C(=O)N[C@H](CCC(N)=O)C(=O)N[C@@H](C(=O)N[C@H](C(=O)N[C@@H](CO)C(=O)N[C@H]1C(=O)N[C@@H](C)C(=O)N[C@@]2(C[C@H]2CCN)C(=O)N[C@@H]([C@@H](C)CC)C(=O)O[C@H]1C)[C@@H](C)CC)[C@@H](C)CC.O=C(O)C(F)(F)F [Example 10] | 4 | 2 | 2 | – | 2 | 4
3 | CC[C@H](C)[C@H](NC(=O)[C@H](N)Cc1ccc(-c2ccccc2)cc1)C(=O)N[C@@H](CO)C(=O)N[C@H](CCC(N)=O)C(=O)N[C@@H](C(=O)N[C@H](C(=O)N[C@@H](CO)C(=O)N[C@H]1C(=O)N[C@@H](C)C(=O)N[C@@]2(C[C@H]2CC(F)F)C(=O)N[C@@H]([C@@H](C)CC)C(=O)O[C@H]1C)[C@@H](C)CC)[C@@H](C)CC [Example 13] | 8 | 8 | 8 | – | 8 | 8

Source: patent US12435108B2, “Teixobactin analogue and use thereof” (SUNSHINE LAKE PHARMA CO., LTD., priority 2019, dated 2025)
